The term GI50 denotes the concentration at which growth is held to half of that of the control.

Test systems include TK-10; SK-MEL-5; IGROV-1; Malme-3M; Hs-578T; NCI-H522; HCT-15; OVCAR-3; SNB-75; HOP-62; T47D; SF-295; HOP-92; NCI-H23; DU-145; RXF 393; SK-MEL-28; BT-549; SF-539; RPMI-8226.
Holding throughout (experiment): DTP human tumour cell line panel, 48 h

Each structure is given as a SMILES string.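 A five-concentration, 48-hour dose response in 96-well plates underlies each endpoint, interpolated linearly between surrounding concentrations. The concentration for 50% growth inhibition is given as GI50.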 The source made the active and inactive calls. Rule as the data show it: active = GI50 up to about 1.1 µM and inactive = higher.

`CCOc1ccccc1Nc1ccc(N)cc1S(=O)(=O)O`: the GI50 with TK-10, in the assay on SK-MEL-5, in the assay on IGROV-1, in the assay on Malme-3M, in the assay with Hs-578T and in the assay with NCI-H522 was > 100 µM (inactive) in each case. Further, the GI50 with HCT-15 was greater than 100 µM; in the assay on OVCAR-3, > 100 µM (inactive); with SNB-75 it was > 100 µM (inactive); with HOP-62, > 100 µM (inactive); with T47D, > 100 µM (inactive); in the assay with SF-295 it was > 100 µM (inactive). In addition, the GI50 with HOP-92, in the assay on NCI-H23, with DU-145, with RXF 393, in the assay with SK-MEL-28 and in the assay on BT-549 was > 100 µM (inactive) throughout.

For `O=C(c1cccs1)N(Cc1cccnc1)C(=S)N(Cc1cccnc1)C(=O)c1cccs1`, the GI50 is 34 µM (inactive) in the assay on TK-10; > 100 µM (inactive) in the assay with SK-MEL-5; > 100 µM (inactive) in the assay on Malme-3M; 53.2 µM (inactive) in the assay with Hs-578T; 29.9 µM (inactive) in the assay on SF-539; 36.5 µM (inactive) with NCI-H522. For the same molecule, the GI50 with HCT-15 is greater than 100 µM; with OVCAR-3, 53.7 µM (inactive); in the assay with SNB-75 it was 37.8 µM (inactive); with HOP-62, 35.6 µM (inactive); in the assay with T47D, > 100 µM (inactive); in the assay with SF-295, 32.2 µM (inactive). The GI50 in the assay with HOP-92, in the assay on NCI-H23, in the assay with DU-145, in the assay on RXF 393, in the assay with SK-MEL-28 and in the assay with BT-549 was > 100 µM (inactive) throughout.

Consider `COC(=O)C1=NN2c3ccccc3CN([C@@H](C)c3ccccc3)C(=O)[C@@H]2C1`, for which the GI50 in the assay with TK-10 was 50.7 µM (inactive); in the assay with SK-MEL-5 it was 18.7 µM (inactive); in the assay on RPMI-8226, 24.5 µM (inactive); in the assay with IGROV-1 it was 64.1 µM (inactive); in the assay with Malme-3M it was 23.1 µM (inactive); in the assay on Hs-578T it was 41.1 µM (inactive). Besides, the GI50 with SF-539 was 50.7 µM (inactive); in the assay with NCI-H522, 21.7 µM (inactive); in the assay with HCT-15, 31.7 µM; in the assay on OVCAR-3, 30.8 µM (inactive); in the assay on HOP-62, 57.7 µM (inactive); in the assay on T47D, 14.1 µM (inactive). Besides, the GI50 is 40.2 µM (inactive) in the assay on SF-295; 34.4 µM (inactive) in the assay with HOP-92; 32.9 µM (inactive) with NCI-H23; 30.8 µM (inactive) in the assay on DU-145; 46.6 µM (inactive) in the assay with RXF 393; 38.7 µM (inactive) in the assay on SK-MEL-28. For the same molecule, in the assay on BT-549, the GI50 is 24.6 µM (inactive).

Take `CC[C@H](C)C1=C(O)[N@+]2([O-])Oc3ccc(-c4c(O)c(O)c(-c5ccc(OC(C)=O)cc5)c(OC(C)=O)c4OC(C)=O)cc3O[C@]2([C@@H](C)CC)C(=O)N1O`: the GI50 was 25.5 µM (inactive) with TK-10; 20 µM (inactive) with SK-MEL-5; 12.8 µM (inactive) with RPMI-8226; 8.85 µM (inactive) in the assay with IGROV-1; 17.1 µM (inactive) with Malme-3M; 39.2 µM (inactive) in the assay with Hs-578T. Besides, the GI50 in the assay with SF-539 is 13.1 µM (inactive); in the assay on NCI-H522, 8.43 µM (inactive); in the assay on HCT-15, 19.7 µM; with OVCAR-3, 16.4 µM (inactive); with HOP-62, 32 µM (inactive); in the assay with T47D, 21.7 µM (inactive). Besides, the GI50 in the assay with SF-295 was 21.6 µM (inactive); in the assay on HOP-92, 11.6 µM (inactive); in the assay on NCI-H23, > 50 µM (inactive); in the assay on DU-145, > 50 µM (inactive); in the assay on RXF 393 it was > 50 µM (inactive); with SK-MEL-28, 33 µM (inactive). Besides, in the assay with BT-549, the GI50 was 32.7 µM (inactive).

As to `Oc1c(C2=N[C@H]3CCCC[C@@H]3N2)ccc2ccccc12`, the GI50 is > 100 µM (inactive) with TK-10; > 100 µM (inactive) in the assay on SK-MEL-5; > 100 µM (inactive) with RPMI-8226; > 82 µM (inactive) in the assay with IGROV-1; > 100 µM (inactive) in the assay with Malme-3M; > 100 µM (inactive) in the assay on Hs-578T. The GI50 in the assay with SF-539 is > 59.6 µM (inactive); in the assay on NCI-H522, > 100 µM (inactive); in the assay with HCT-15, greater than 100 µM; in the assay on OVCAR-3 it was > 100 µM (inactive); with SNB-75 it was > 69.2 µM (inactive); in the assay on HOP-62, > 44.7 µM (inactive). The GI50 in the assay on T47D, in the assay with HOP-92, in the assay on NCI-H23, with DU-145, with SK-MEL-28 and in the assay on BT-549 was > 100 µM (inactive) throughout.

Take `Cc1cc(=O)oc2cc(OCc3c(F)cccc3Cl)ccc12`: the GI50 in the assay with TK-10 is > 100 µM (inactive); with SK-MEL-5, 3.66 µM (inactive); in the assay on IGROV-1, 9.46 µM (inactive); in the assay with Malme-3M, 0.728 µM (active); in the assay with Hs-578T, 21.9 µM (inactive); in the assay on SF-539, 11.9 µM (inactive). The GI50 in the assay on NCI-H522 was 11.1 µM (inactive); in the assay with OVCAR-3, > 100 µM (inactive); in the assay with SNB-75, 9.02 µM (inactive); in the assay with HOP-62, 13 µM (inactive); with T47D, 2.49 µM (inactive); in the assay on SF-295, 17.5 µM (inactive). The GI50 in the assay on HOP-92 is 10.5 µM (inactive); in the assay with NCI-H23 it was > 100 µM (inactive); with DU-145, > 100 µM (inactive); in the assay with RXF 393 it was 7.23 µM (inactive); in the assay with SK-MEL-28, > 100 µM (inactive); in the assay on BT-549, 28.2 µM (inactive).

For the molecule `Cn1c2ccc(Cl)cc2c2ccc3c(c21)C(=O)C=CC3=O`, the GI50 with TK-10, in the assay on SK-MEL-5, in the assay with RPMI-8226, in the assay on IGROV-1, in the assay on Malme-3M and in the assay with Hs-578T was > 10 µM (inactive) throughout. The GI50 is > 10 µM (inactive) in the assay with SF-539; > 10 µM (inactive) with NCI-H522; greater than 10 µM in the assay on HCT-15; > 10 µM (inactive) in the assay with OVCAR-3; > 10 µM (inactive) with SNB-75; > 10 µM (inactive) in the assay with HOP-62. Further, the GI50 in the assay on T47D, in the assay on SF-295, in the assay with HOP-92, in the assay on NCI-H23, in the assay with DU-145 and in the assay on SK-MEL-28 was > 10 µM (inactive) each time. In addition, the GI50 in the assay on BT-549 was > 10 µM (inactive).

On to `Nc1c(Cl)cc(-c2nc3ccccc3s2)cc1Cl`, for which the GI50 in the assay on TK-10 is 0.501 µM (active); in the assay with SK-MEL-5, > 100 µM (inactive); with IGROV-1, 0.328 µM (active); in the assay on Malme-3M, > 100 µM (inactive); in the assay with Hs-578T, > 100 µM (inactive); in the assay with SF-539 it was > 100 µM (inactive). Moreover, the GI50 with NCI-H522 was > 100 µM (inactive); in the assay on HCT-15 it was greater than 100 µM; in the assay on OVCAR-3, > 100 µM (inactive); in the assay on SNB-75, > 100 µM (inactive); in the assay on HOP-62, > 100 µM (inactive); with T47D it was 4.16 µM (inactive). For the same molecule, the GI50 with SF-295, in the assay on HOP-92, with DU-145, with RXF 393, with SK-MEL-28 and in the assay with BT-549 was > 100 µM (inactive) in each case.

With `CCOC(=O)N1CCN(c2c(C)nc(C)nc2O)CC1`, the GI50 in the assay on TK-10, in the assay with SK-MEL-5, with RPMI-8226, in the assay on IGROV-1, in the assay on Malme-3M and with Hs-578T was > 100 µM (inactive) in each case. The GI50 in the assay on SF-539 was > 100 µM (inactive); in the assay with NCI-H522 it was > 100 µM (inactive); in the assay on HCT-15, greater than 100 µM; with OVCAR-3 it was > 100 µM (inactive); in the assay on HOP-62, > 100 µM (inactive); in the assay on T47D, > 100 µM (inactive). Besides, the GI50 in the assay with SF-295, in the assay with HOP-92, in the assay on NCI-H23, in the assay on DU-145, in the assay on RXF 393 and with SK-MEL-28 was > 100 µM (inactive) each time. Also, in the assay on BT-549, the GI50 is > 100 µM (inactive).

On to `CC[C@H](C)C1=C(OC(C)=O)[N@+]2([O-])Oc3ccc(-c4c(O)c(O)c(-c5ccc(OC(C)=O)cc5)c(OC(C)=O)c4OC(C)=O)cc3O[C@]2([C@@H](C)CC)C(=O)N1O`, for which the GI50 in the assay with TK-10 is 20.4 µM (inactive); with SK-MEL-5, 16.4 µM (inactive); with RPMI-8226, 7.85 µM (inactive); in the assay with IGROV-1, 17 µM (inactive); in the assay on Malme-3M, 16.6 µM (inactive); in the assay on Hs-578T, 29.3 µM (inactive). Further, the GI50 in the assay with SF-539 is 14.2 µM (inactive); in the assay on NCI-H522 it was 10.6 µM (inactive); with HCT-15 it was 19.2 µM; with OVCAR-3 it was 15 µM (inactive); in the assay with HOP-62, 24.6 µM (inactive); in the assay on T47D, 15.1 µM (inactive). In addition, the GI50 with SF-295 is 22.8 µM (inactive); in the assay on HOP-92, 3.84 µM (inactive); in the assay with NCI-H23 it was 29.8 µM (inactive); in the assay on DU-145, 44.5 µM (inactive); in the assay on RXF 393 it was 29.6 µM (inactive); with SK-MEL-28, 27 µM (inactive). For the same molecule, the GI50 in the assay with BT-549 is 16.9 µM (inactive).

For the origin of these results see ChEMBL document CHEMBL1201862, “PubChem BioAssay data set” (2004).
